# Assay results from ChEMBL document CHEMBL2321651, “Structure-activity relationship study on benzoic acid part of diphenylamine-based retinoids” (Bioorg Med Chem Lett, 2013).
# Calls of active or inactive are those of the source. The calls are words filed in the database; no cut-off is given here.
# Columns and labels:
# HL-60 [1] = assay: Induction of human HL60 cell differentiation; type: functional, cell-based
# HL-60 [2] = assay: Induction of human HL60 cell differentiation in presence of 1 x 10^-10 M RAR agonist Am80; type: functional, cell-based
# HL-60 [3] = assay: Inhibition of Am80-induced human HL60 cell differentiation; type: cell-based
# Retinoid X receptor = target: T1, Retinoid X receptor (Homo sapiens, UniProt P28702+P48443+P19793); assay: Agonist activity at RXR (unknown origin) in presence of RAR agonist Am80; type: protein assay
# T1 sequence (P28702 whole entry): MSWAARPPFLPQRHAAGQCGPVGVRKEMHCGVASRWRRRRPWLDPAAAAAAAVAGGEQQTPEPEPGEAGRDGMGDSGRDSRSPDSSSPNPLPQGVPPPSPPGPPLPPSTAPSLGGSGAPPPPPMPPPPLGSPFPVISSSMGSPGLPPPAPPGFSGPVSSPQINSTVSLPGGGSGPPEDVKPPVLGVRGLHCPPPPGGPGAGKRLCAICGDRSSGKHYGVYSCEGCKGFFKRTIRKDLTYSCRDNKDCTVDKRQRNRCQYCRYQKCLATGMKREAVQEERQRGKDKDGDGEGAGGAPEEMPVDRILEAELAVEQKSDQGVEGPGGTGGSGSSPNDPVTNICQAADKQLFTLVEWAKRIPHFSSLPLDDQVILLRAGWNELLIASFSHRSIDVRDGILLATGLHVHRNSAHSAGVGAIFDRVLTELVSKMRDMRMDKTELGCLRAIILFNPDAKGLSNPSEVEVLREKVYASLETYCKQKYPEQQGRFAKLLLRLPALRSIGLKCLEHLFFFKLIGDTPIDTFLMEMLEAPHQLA
# T1 sequence (P48443 whole entry): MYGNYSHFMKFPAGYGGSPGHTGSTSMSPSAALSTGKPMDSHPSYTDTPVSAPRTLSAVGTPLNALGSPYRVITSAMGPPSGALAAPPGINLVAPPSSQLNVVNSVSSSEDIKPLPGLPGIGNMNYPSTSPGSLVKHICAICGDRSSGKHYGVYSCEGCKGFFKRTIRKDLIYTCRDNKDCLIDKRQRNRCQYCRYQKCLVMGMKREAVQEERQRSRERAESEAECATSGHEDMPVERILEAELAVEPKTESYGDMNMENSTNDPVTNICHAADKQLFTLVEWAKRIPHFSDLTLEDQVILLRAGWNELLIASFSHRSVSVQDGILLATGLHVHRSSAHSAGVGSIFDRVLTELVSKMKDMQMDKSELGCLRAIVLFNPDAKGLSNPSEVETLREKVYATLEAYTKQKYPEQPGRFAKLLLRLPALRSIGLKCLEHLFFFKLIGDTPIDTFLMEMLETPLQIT
# T1 sequence (P19793 whole entry): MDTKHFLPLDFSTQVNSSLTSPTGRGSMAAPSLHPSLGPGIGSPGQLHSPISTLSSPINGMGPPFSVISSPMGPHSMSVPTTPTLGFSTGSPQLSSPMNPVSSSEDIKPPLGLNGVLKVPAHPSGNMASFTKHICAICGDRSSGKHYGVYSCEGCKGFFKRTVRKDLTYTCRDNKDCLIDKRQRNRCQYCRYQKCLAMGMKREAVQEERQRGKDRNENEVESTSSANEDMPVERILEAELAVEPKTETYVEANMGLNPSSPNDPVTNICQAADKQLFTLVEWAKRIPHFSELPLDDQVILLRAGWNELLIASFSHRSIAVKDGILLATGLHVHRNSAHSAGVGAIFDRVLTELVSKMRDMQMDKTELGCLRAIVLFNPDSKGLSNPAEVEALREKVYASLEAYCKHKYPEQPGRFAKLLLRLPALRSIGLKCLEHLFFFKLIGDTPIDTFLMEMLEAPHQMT
# [4] = Agonist activity at RAR/RXR (unknown origin) in presence of RAR agonist Am80; set-up: species or system Homo sapiens
# [5] = Agonist activity at RAR/RXR (unknown origin); set-up: species or system Homo sapiens
# HL-60 [6] = assay: Induction of human HL60 cell differentiation at 1 x 10^-10 M; type: functional
# HL-60 [7] = assay: Induction of human HL60 cell differentiation at 3.3 x 10^-10 M; type: functional
Compound,Activity (HL-60 [2]),Activity (HL-60 [1]),other results
Cc1cc2c(cc1N(C)c1ccc(/C=C/C(=O)O)cc1)C(C)(C)CCC2(C)C,Active,,EC50 (HL-60 [1]): 38 nM
CN(c1ccc(/C=C/C(=O)O)cc1)c1ccc2c(c1)C(C)(C)CCC2(C)C,Active,,EC50 (HL-60 [1]): 22 nM
CCCN(c1ccc(/C=C/C(=O)O)cc1)c1cc2c(cc1C)C(C)(C)CCC2(C)C,Active,Active,
CCCN(c1ccc(CCC(=O)O)cc1)c1ccc2c(c1)C(C)(C)CCC2(C)C,Active,Active,
Cc1cc(C(=O)O)ccc1N(C)c1ccc2c(c1)C(C)(C)CCC2(C)C,inactive,inactive,inhibition (INH) (HL-60 [3]): Dose-dependent effect
CN(c1ccc(CCC(=O)O)cc1)c1ccc2c(c1)C(C)(C)CCC2(C)C,Active,Active,
Cc1cc2c(cc1N(C)c1ccc(C(=O)O)cc1)C(C)(C)CCC2(C)C,Active,Active,EC50 (Retinoid X receptor): 1.3 ×10⁻¹⁰ M
CCCN(c1ccc(/C=C/C(=O)O)cc1)c1ccc2c(c1)C(C)(C)CCC2(C)C,Active,Active,
CCCN(c1ccc(CCC(=O)O)cc1)c1cc2c(cc1C)C(C)(C)CCC2(C)C,Active,Active,
CCCN(c1ccc(C(=O)O)cc1)c1cc2c(cc1C)C(C)(C)CCC2(C)C,Active,,EC50 (Retinoid X receptor): 1.4 ×10⁻¹⁰ M
CCCN(c1ccc(C(=O)O)cc1)c1ccc2c(c1)C(C)(C)CCC2(C)C,Active,,EC50 [4]: 1.5 nM; EC50 [5]: Not Active
CC1(C)CCC(C)(C)c2cc(NC(=O)c3ccc(C(=O)O)cc3)ccc21 [TAMIBAROTENE],,,Activity (HL-60 [6]): 5%; Activity (HL-60 [7]): 60%
CN(c1ccc(C(=O)O)cc1)c1ccc2c(c1)C(C)(C)CCC2(C)C,,Active,EC50 [4]: 6.6 nM; EC50 ([5]; read-out: EC50): 360 nM
Cc1cc2c(cc1N(C)c1ccc(CCC(=O)O)cc1)C(C)(C)CCC2(C)C,Active,Active,
